Assay results: US8586107B2, “Schisandra sphenanthera fruit extract and cosmetic, dermatological, and nutraceutical compositions comprising same” (Laboratoires Expanscience, priority 2009, dated 2013)
Marks after values point to notes of the source that are not given here.

What was measured:
[1] = system: endothelin production; assay: Endothelin production by dermal microvascular endothelial cells (ELISA); type: cell-based, human; details: 6 hours, 16.7 nM insulin
Protocol: Endothelin is a neuropeptide with powerful vasoconstrictive activity. It is secreted by endothelial and epithelial cells (keratinocytes), fibroblasts, adipocytes and macrophages. The effect of Schisandra peptides on endothelin production by endothelial cells was studied.
Normal adult human dermal microvascular endothelial cells cultivated in a monolayer were incubated for 6 hours in the absence (control) or the presence of 0.05% and 0.1% Schisandra peptides or 16.7 nM insulin (reference activator).
At the end of the incubation period, secreted endothelin was quantified by ELISA. In parallel, the proteins contained in the cellular lysates were quantified by the Bradford method.
The quantity of endothelin assayed was thus normalized with the quantity of total proteins, and the results were then expressed as the ratio of endothelin (ng) to total protein (μg) in the layer of cells.
The statistical significance of the results was evaluated by a single-factor analysis of variance followed by a Holm-Sidak test.

[2] = system: Normal human dermal microvascular endothelial cells; assay: Endothelial cell proliferation in the absence or presence of VEGF (intracellular phosphatase activity); type: cell-based; details: 10 ng/ml VEGF
Protocol: Normal human dermal microvascular endothelial cells were incubated for 24 or 48 hours in the absence (control) or presence of Schisandra peptides at concentrations of 0.05% and 0.1% and in the presence and absence of 10 ng/ml vascular endothelial growth factor (VEGF), the reference activator.
At the end of incubation, cell viability was evaluated by a spectrophotometric assay of intracellular phosphatase activity.
Statistical significance was evaluated by a single-factor analysis of variance followed by a Holm-Sidak test.

[3] = system: kallikrein 5 (KLK5) gene expression; assay: KLK5 gene expression induced by calcitriol in keratinocytes (real-time RT-PCR); type: cell-based, human; details: NHEK, 24 hours
Protocol: (§1) In order to evaluate the potential activity of Schisandra peptides in the inflammatory phase of rosacea, we studied the effect of this complex of active agents on kallikrein 5 (KLK5) and cathelicidin (LL37) gene expression induced by a vitamin D analogue (calcitriol) in keratinocytes.
(§2) Normal human epidermal keratinocytes (NHEK) were cultivated in culture medium supplemented with Ca++ in order to bring them to a state of differentiation.
(§3) The keratinocytes were treated for 24 hours with 0.05% (w/v) Schisandra peptides in the presence or absence of 10^-7 M calcitriol (vitamin D analogue).
(§4) At the end of the treatment, the culture supernatants were eliminated and total RNA extracted using an extraction kit (RNeasy Mini Kit, Qiagen). Total RNA were then assayed in chips using the Experion™ system and the Experion RNA StdSens kit (Bio-Rad) and then reverse-transcribed into cDNA using the iScript cDNA Synthesis kit (Bio-Rad).
(§5) The neo-synthesized cDNA relating to the genes of interest (KLK5 and LL37) or to the reference genes were amplified selectively by real-time PCR on an iQ5 system (Bio-Rad) using SybrGreen technology (iQ SybrGreen kit, Bio-Rad).
(§6) The real-time RT-PCR method enables the relative quantification of the expression level of a gene of interest in relation to that of a reference gene in response to a given treatment.
(§7) The quantitative analysis of the results is based on the collection of threshold cycles.
(§8) The threshold cycle is […] correlated with the initial number of copies of target DNA.
(§9) ΔCt is thus calculated as follows: ΔCt=Cttarget gene−Ctreference gene
(§10) In a second step, the variation, as a function of the treatment and the number of copies of the gene of interest, was determined. ΔΔCt is thus calculated as follows: ΔΔCt=ΔCtcontrol−ΔCttreated
(§11) Lastly, relative quantity (RQ) is calculated: RQ=(1+E)ΔΔCt.
(§12) E (efficiency) is considered equal to 1, and thus: RQ=2ΔΔCt
(§13) The significance of the results was verified for the ΔCt values by a single-factor analysis of variance followed by a Tukey's test (GraphPad Prism version 5.02 software, GraphPad Software, San Diego, Calif., USA).

[4] = system: cathelicidin (LL37) gene expression; assay: LL37 gene expression induced by calcitriol in keratinocytes (real-time RT-PCR); type: cell-based, human; details: NHEK, 24 hours
Protocol: as §1, §2, §3, §4, §5, §6, §7, §8, §9, §10, §11, §12, §13

[5] = system: interleukin-1β (IL-1β) secretion; assay: IL-1β secretion induced by PMA in keratinocytes (ELISA); type: cell-based, human
Protocol: (§14) Normal human keratinocytes were preincubated for 24 hours with Schisandra peptides at concentrations of 0.005% and 0.05% or with 10^-7 M dexamethasone (anti-inflammatory reference molecule).
(§15) Inflammation was then induced by treatment with 10 μg/ml PMA for 24 hours, always in the presence of Schisandra peptides or dexamethasone.
(§16) At the end of incubation, the quantities of interleukin-1β (IL-1β), interleukin-8 (IL-8) and interleukin-6 (IL-6) present in the culture supernatants were measured by ELISA.
(§17) In parallel, the number of biologically active cells is determined by a neutral red test. The quantity of cytokine assayed for each condition is reduced to the number of living cells by dividing by the OD540 value obtained at the end of the neutral red test.

[6] = system: interleukin-8 (IL-8) secretion; assay: IL-8 secretion induced by PMA in keratinocytes (ELISA); type: cell-based, human
Protocol: as §14, §15, §16, §17

[7] = system: interleukin-6 (IL-6) secretion; assay: IL-6 secretion induced by PMA in keratinocytes (ELISA); type: cell-based, human; details: for IL-6: keratinocytes
Protocol: as §14, §15, §16, §17

[8] = system: VEGF secretion; assay: VEGF protein release induced by PMA in keratinocytes (ELISA); type: cell-based, human
Protocol: Normal human keratinocytes were preincubated for 24 hours with Schisandra peptides at concentrations of 0.005%, 0.05% and 0.1% or with 10^-7 M dexamethasone (anti-inflammatory reference molecule).
as §15
At the end of incubation, the quantity of VEGF present in the culture supernatants was measured by ELISA.
as §17
The significance of the results was verified by a single-factor analysis of variance followed by a Tukey's test (GraphPad Prism version 5.02 software, GraphPad Software, San Diego, Calif., USA).

[9] = 10^-7 M calcitriol alone (stimulated control)
[10] = 10^-7 M calcitriol alone (stimulated control), control cells = 1
[11] = 10 μg/ml PMA 24 hours alone (stimulated control)
[12] = 10−7 M dexamethasone 24 h preincubation + PMA 24 h

## insulin: reference activator of endothelin production
[1]
  Endothelin production, change vs. control cells: +30%
[1]; endothelial cells
  Endothelin: 1.72 ± 0.23 ng/μg of proteins

## VEGF
[2]; 24 hours
  Endothelial cell growth, stimulation in relation to control cells: +41.4%
[2]; 48 hours
  Endothelial cell growth, stimulation in relation to control cells: +96.3%

## C=C1/C(=C\C=C2/CCC[C@]3(C)[C@@H]([C@H](C)CCCC(C)(C)O)CC[C@@H]23)C[C@@H](O)C[C@@H]1O [calcitriol]
[3]; 10^-7 M calcitriol
  Stimulation of kallikrein 5 gene expression vs. control cells: +149%
[3]; [9]
  Mean ΔCt (CtKLK5 − CtGAPDH): 2.46
  ΔΔCt (KLK5): 1.32
[3]; [10]
  KLK5 expression (RQ): 2.49$$
[4]; 10^-7 M calcitriol
  Stimulation of LL37 gene expression vs. control cells: +795%
[4]; [9]
  Mean ΔCt (CtLL37 − CtGAPDH): 11.01
  ΔΔCt (LL37): 3.16
[4]; [10]
  LL37 expression (RQ): 8.95$$$

## CCCCCCCCCCCCCC(=O)O[C@@H]1[C@@H](C)[C@@]2(O)[C@@H](C=C(CO)C[C@]3(O)C(=O)C(C)=C[C@@H]23)[C@@H]2C(C)(C)[C@]12OC(C)=O [PMA]
[5]; [11]
  IL-1β: 0.106 ± 0.008 ODELISA-ODneutral red
[6]; [11]
  IL-8: 2.056 ± 0.166 pg/ml/ODneutral red
[7]; [11]
  IL-6: 0.098 ± 0.002 ODELISA/ODneutral red
[8]; [11]
  VEGF: 3333.861 ± 111.766 pg/ml/ODneutral red

## C[C@@H]1C[C@H]2[C@@H]3CCC4=CC(=O)C=C[C@]4(C)[C@@]3(F)[C@@H](O)C[C@]2(C)[C@@]1(O)C(=O)CO [dexamethasone]
[5]; [12]
  IL-1β: 0.037 ± 0.011 ODELISA-ODneutral red
[6]; [12]
  IL-8: 0.973 ± 0.213 pg/ml/ODneutral red
[7]; 10−7 M dexamethasone
  IL-6 release, change vs. stimulated control (PMA): −56%***
[7]; [12]
  IL-6: 0.043 ± 0.012 ODELISA/ODneutral red
[8]; 10^−7 M dexamethasone 24 h preincubation + PMA 24 h
  VEGF: 1789.338 ± 489.677 pg/ml/ODneutral red
